Patent US7863289B2, “Compounds and methods for kinase modulation, and indications therefor” (Plexxikon, Inc., priority 2006, dated 2011)

Tests used:
Assay type in all cases: biochemical
Src = Src (Homo sapiens, UniProt P12931); assay: Kinase activity assay, Src; conditions: under the test conditions employed; read-out: activity toward kinase Src, IC50
From the text: (§1) Assays for the activity of kinases, including, but not limited to, B-Raf, B-Raf V600E, B-Raf […] and c-Raf-1 are known in the art, for example as described in U.S. patent application Ser. No. 11/473,347 (see Iso, PCT publication WO2007002433), the disclosure of which is hereby incorporated by reference in its entirety.

Kdr = Kdr (Homo sapiens, UniProt P35968); assay: Kinase activity assay, Kdr; conditions: under the test conditions employed; read-out: activity toward kinase Kdr, IC50
From the text: as §1

B-Raf = B-Raf (Homo sapiens, UniProt P15056); assay: Kinase activity assay, B-Raf; conditions: under the test conditions employed; read-out: activity toward kinase B-Raf, IC50
From the text: as §1

c-Raf-1 = c-Raf-1 (Homo sapiens, UniProt P04049); assay: Kinase activity assay, c-Raf-1; conditions: under the test conditions employed; read-out: activity toward kinase c-Raf-1, IC50
From the text: as §1

Kit = Kit (Homo sapiens, UniProt P10721); assay: Kinase activity assay, Kit; conditions: under the test conditions employed; read-out: activity toward kinase Kit, IC50
From the text: as §1

B-Raf V600E = B-Raf V600E (Homo sapiens, UniProt P15056, V600E); assay: Kinase activity assay, B-Raf V600E; conditions: under the test conditions employed; read-out: activity toward kinase B-Raf V600E, IC50
From the text: as §1

Measured: IC50

Chain of Src (P12931 whole entry): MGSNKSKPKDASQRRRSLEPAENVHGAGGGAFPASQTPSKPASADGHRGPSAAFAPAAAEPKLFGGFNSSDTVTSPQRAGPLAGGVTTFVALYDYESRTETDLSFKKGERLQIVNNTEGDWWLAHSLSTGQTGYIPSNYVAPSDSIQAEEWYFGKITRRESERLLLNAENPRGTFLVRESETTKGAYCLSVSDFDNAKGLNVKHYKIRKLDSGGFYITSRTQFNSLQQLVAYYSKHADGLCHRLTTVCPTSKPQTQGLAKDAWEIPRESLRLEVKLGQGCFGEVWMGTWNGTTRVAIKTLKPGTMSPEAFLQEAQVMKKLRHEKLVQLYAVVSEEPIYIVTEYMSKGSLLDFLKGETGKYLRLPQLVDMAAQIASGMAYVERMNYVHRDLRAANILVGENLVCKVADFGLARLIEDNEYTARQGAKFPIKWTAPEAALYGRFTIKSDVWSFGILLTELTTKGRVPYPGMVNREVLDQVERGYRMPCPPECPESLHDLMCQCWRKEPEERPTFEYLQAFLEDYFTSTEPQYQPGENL
Chain of c-Raf-1 (P04049 whole entry): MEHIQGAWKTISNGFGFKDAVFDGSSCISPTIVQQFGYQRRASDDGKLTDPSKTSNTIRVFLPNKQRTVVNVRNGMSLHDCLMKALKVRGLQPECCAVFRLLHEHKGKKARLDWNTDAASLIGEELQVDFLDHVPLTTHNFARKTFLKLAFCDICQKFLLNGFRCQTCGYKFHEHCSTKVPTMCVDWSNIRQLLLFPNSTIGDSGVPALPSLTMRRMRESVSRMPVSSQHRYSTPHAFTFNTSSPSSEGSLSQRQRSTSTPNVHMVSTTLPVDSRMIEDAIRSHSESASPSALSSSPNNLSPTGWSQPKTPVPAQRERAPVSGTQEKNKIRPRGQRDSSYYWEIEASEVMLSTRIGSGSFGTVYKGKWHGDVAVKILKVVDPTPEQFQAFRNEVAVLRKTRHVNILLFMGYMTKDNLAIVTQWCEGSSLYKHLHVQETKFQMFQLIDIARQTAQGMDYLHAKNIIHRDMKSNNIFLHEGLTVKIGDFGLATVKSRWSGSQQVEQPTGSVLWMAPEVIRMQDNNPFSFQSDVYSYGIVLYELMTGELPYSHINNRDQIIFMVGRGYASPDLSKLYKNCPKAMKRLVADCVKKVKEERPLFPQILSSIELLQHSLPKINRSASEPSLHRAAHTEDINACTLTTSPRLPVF
Chain of Kit (P10721 26-976): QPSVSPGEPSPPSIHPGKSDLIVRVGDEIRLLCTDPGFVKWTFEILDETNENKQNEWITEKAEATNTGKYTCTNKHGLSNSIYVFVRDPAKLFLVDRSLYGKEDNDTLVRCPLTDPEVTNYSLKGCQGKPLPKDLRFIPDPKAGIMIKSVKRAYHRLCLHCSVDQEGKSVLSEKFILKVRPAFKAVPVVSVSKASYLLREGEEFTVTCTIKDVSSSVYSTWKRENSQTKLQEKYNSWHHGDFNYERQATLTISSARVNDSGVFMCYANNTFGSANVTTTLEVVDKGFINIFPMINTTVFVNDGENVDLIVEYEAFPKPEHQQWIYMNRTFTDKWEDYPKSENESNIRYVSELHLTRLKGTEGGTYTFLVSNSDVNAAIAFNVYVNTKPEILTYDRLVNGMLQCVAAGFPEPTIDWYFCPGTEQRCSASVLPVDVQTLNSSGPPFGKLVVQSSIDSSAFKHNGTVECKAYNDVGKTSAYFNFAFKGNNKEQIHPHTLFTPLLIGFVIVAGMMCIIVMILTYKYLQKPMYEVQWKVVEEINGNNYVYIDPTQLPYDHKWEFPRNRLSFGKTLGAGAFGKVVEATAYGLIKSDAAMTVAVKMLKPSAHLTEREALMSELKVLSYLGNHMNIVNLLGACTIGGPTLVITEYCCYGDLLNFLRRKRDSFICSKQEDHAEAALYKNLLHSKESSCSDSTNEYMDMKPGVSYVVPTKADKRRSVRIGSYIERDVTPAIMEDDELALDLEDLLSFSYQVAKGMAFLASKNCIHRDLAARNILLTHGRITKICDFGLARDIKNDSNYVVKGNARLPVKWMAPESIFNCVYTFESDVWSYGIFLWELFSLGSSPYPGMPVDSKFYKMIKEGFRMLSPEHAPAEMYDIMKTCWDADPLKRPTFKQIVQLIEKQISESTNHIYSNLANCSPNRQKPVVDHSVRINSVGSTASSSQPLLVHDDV
Chain of B-Raf V600E (P15056 whole entry V600E): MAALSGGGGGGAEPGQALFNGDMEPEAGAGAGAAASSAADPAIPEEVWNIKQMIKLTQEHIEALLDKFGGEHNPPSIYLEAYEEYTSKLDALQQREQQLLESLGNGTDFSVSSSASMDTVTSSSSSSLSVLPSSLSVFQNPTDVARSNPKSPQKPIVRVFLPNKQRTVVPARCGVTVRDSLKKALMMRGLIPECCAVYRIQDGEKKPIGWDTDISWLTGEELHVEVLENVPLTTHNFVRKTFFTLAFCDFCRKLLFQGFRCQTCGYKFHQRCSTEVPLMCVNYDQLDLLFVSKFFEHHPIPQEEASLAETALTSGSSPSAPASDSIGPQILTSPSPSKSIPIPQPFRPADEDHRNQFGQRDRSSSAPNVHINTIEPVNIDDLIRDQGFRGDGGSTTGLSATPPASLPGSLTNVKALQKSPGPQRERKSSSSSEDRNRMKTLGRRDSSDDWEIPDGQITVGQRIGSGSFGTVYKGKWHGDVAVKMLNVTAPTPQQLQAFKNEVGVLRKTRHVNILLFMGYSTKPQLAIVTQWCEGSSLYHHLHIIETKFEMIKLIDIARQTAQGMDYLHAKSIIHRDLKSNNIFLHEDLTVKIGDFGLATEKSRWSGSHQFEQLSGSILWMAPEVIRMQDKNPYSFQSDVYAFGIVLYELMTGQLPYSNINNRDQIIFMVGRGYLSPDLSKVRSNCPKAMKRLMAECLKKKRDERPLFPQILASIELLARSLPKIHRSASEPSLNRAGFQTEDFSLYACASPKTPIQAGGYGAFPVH
Chain of Kdr (P35968 20-1356): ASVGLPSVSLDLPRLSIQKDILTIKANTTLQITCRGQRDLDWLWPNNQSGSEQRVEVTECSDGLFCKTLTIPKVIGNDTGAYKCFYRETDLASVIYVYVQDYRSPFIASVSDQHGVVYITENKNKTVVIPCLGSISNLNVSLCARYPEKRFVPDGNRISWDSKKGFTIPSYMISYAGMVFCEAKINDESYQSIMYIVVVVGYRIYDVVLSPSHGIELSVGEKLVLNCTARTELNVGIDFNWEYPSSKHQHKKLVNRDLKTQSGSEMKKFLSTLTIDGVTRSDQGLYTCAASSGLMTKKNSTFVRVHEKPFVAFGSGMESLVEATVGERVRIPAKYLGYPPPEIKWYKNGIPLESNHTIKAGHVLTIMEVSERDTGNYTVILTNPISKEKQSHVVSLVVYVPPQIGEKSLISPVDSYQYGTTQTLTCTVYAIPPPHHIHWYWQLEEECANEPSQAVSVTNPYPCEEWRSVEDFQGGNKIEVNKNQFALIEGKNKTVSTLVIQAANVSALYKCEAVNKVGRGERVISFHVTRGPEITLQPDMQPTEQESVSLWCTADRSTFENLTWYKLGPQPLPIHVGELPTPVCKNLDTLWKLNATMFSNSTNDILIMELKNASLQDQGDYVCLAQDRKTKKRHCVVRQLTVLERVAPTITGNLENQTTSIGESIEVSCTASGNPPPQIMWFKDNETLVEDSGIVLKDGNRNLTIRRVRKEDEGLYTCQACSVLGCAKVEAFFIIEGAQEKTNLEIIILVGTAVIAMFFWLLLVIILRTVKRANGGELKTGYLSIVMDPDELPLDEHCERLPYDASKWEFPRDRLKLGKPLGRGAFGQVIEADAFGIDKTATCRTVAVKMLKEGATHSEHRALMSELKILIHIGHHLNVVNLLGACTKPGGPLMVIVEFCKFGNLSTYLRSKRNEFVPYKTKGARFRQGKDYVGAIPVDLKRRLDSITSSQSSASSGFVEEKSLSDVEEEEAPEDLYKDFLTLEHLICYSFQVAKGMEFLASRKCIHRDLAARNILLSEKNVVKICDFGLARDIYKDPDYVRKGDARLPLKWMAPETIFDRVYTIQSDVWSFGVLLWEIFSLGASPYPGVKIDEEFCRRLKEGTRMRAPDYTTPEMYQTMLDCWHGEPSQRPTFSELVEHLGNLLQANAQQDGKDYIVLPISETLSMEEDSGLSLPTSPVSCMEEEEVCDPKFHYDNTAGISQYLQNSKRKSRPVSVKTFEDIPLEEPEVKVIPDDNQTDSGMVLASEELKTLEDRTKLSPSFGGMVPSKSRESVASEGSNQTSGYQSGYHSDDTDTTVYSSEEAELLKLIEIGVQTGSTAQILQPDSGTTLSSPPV
Chain of B-Raf (P15056 whole entry): as the sequence (P15056 whole entry V600E) above, with E600V counted along it

O=C(O)c1cccc(S(=O)(=O)Nc2ccc(F)c(C(=O)c3c[nH]c4ncc(Cl)cc34)c2F)c1 [Compound P-0004, 3-[3-(5-Chloro-1H-pyrrolo[2,3-b]pyridine-3-carbonyl)-2,4-difluoro-phenylsulfamoyl]-benzoic acid]
≤ 10 µM: Src | Kdr

CCCCOc1ccc(S(=O)(=O)Nc2ccc(F)c(C(=O)c3c[nH]c4ncc(Cl)cc34)c2F)cc1 [Compound P-0007, 4-Butoxy-N-[3-(5-chloro-1H-pyrrolo[2,3-b]pyridine-3-carbonyl)-2,4-difluoro-phenyl]-benzenesulfonamide]
≤ 10 µM: B-Raf | c-Raf-1 | Kit | B-Raf V600E

Cc1ccc2sc(S(=O)(=O)Nc3ccc(F)c(C(=O)c4c[nH]c5ncc(Cl)cc45)c3F)cc2c1 [Compound P-0017, 5-Methyl-benzo[b]thiophene-2-sulfonic acid [3-(5-chloro-1H-pyrrolo[2,3-b]pyridine-3-carbonyl)-2,4-difluoro-phenyl]-amide]
not listed: Kdr
≤ 10 µM: all other assays above

Cn1ccc(S(=O)(=O)Nc2ccc(F)c(C(=O)c3c[nH]c4ncc(Cl)cc34)c2F)n1 [Compound P-0029, 1-Methyl-1H-pyrazole-3-sulfonic acid [3-(5-chloro-1H-pyrrolo[2,3-b]pyridine-3-carbonyl)-2,4-difluoro-phenyl]-amide]
≤ 10 µM: Kit | B-Raf V600E | Src | Kdr

Cc1cnc2[nH]cc(C(=O)c3c(F)ccc(NS(=O)(=O)c4ccc(C(F)(F)F)cc4)c3F)c2c1 [Compound P-0030, N-[2,4-Difluoro-3-(5-methyl-1H-pyrrolo[2,3-b]pyridine-3-carbonyl)-phenyl]-4-trifluoromethyl-benzenesulfonamide]
≤ 10 µM: B-Raf | c-Raf-1 | B-Raf V600E

COC(=O)/C=C/c1cnc2[nH]cc(C(=O)c3c(F)ccc(NS(=O)(=O)c4ccc(C(F)(F)F)cc4)c3F)c2c1 [Compound P-0032, (E)-3-{3-[2,6-Difluoro-3-(4-trifluoromethyl-benzenesulfonylamino)-benzoyl]-1H-pyrrolo[2,3-b]pyridin-5-yl}-acrylic acid methyl ester]
≤ 10 µM: B-Raf | Kit | B-Raf V600E | Kdr

COC(=O)CCc1cnc2[nH]cc(C(=O)c3c(F)ccc(NS(=O)(=O)c4ccc(C(F)(F)F)cc4)c3F)c2c1 [Compound P-0033, 3-{3-[2,6-difluoro-3-(4-trifluoromethyl-benzenesulfonylamino)-benzoyl]-1H-pyrrolo[2,3-b]pyridin-5-yl}-propionic acid methyl ester]
≤ 10 µM: B-Raf | B-Raf V600E

O=C(O)CCc1cnc2[nH]cc(C(=O)c3c(F)ccc(NS(=O)(=O)c4ccc(C(F)(F)F)cc4)c3F)c2c1 [Compound P-0034, 3-{3-[2,6-difluoro-3-(4-trifluoromethyl-benzenesulfonylamino)-benzoyl]-1H-pyrrolo[2,3-b]pyridin-5-yl}-propionic acid]
≤ 10 µM: B-Raf | B-Raf V600E | Kdr

COc1cnc2[nH]cc(C(=O)c3c(F)ccc(NS(=O)(=O)c4ccccn4)c3F)c2c1 [Compound P-0036, Pyridine-2-sulfonic acid [2,4-difluoro-3-(5-methoxy-1H-pyrrolo[2,3-b]pyridine-3-carbonyl)-phenyl]-amide]
≤ 10 µM: B-Raf | Src
